Data taken from ChEMBL document CHEMBL1135413, “Arylamidrazones as novel corticotropin releasing factor receptor antagonists” (J Med Chem, 2002).

target: T1, Corticotropin-releasing factor receptor 1 (Homo sapiens, UniProt P34998); test: Binding affinity against human Corticotropin releasing factor receptor 1
T1 sequence (P34998 whole entry): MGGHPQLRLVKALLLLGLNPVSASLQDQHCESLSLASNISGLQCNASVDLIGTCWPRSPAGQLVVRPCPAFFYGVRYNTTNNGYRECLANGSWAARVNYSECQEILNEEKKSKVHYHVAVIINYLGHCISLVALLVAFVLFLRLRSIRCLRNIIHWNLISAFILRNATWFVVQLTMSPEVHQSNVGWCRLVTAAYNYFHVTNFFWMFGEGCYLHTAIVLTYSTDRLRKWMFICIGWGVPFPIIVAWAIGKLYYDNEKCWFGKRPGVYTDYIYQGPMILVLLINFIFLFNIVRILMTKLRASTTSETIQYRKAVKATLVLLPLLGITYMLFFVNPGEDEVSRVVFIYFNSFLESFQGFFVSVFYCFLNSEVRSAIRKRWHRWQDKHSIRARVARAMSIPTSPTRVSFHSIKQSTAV

Row | Ki | Compound
1 | 0.417 µM | CC(=O)C(=NNc1ccccc1Cl)Nc1cccc(Cl)c1
2 | 1.4 µM | COc1cccc(NC(=NNc2ccccc2C)C(C)=O)c1
3 | > 10 µM | CC(=O)/C(=N\c1ccccc1Cl)NNc1ccccc1C#N
4 | > 10 µM | CC(=O)C(=NNc1ccccc1S(N)(=O)=O)Nc1cccc(Cl)c1
5 | 0.538 µM | CC(=O)C(=NNc1ccccc1C(F)(F)F)Nc1cccc(Cl)c1
6 | 0.043 µM | CC(=O)/C(=N\c1cccc(F)c1)NNc1ccccc1Cl
7 | > 10 µM | CC(=O)C(=NNc1ccccc1C(F)(F)F)Nc1cccc(C(F)(F)F)c1
8 | 0.035 µM | C#Cc1cccc(/N=C(/NNc2ccccc2Cl)C(C)=O)c1
9 | 0.291 µM | CC(=O)/C(=N\c1cccc(C(F)(F)F)c1)NNc1ccccc1C
10 | > 10 µM | CC(=O)/C(=N\Nc1ccccc1Cl)N(C)c1cccc(Cl)c1
11 | > 10 µM | CC(=O)/C(=N\Nc1ccccc1C(F)(F)F)N(C)c1cccc(Cl)c1
12 | 1.83 µM | CC(=O)/C(=N\c1ccc(Cl)cc1)NNc1ccccc1C
13 | 0.197 µM | CC(=O)/C(=N\c1cccc(F)c1)NNc1ccccc1C(F)(F)F
14 | 2.21 µM | CC(=O)/C(=N\Nc1ccccc1C#N)Nc1ccc(Cl)cc1
15 | 1.08 µM | CC(=O)C(=NNc1ccccc1C#N)Nc1ccccc1
16 | > 10 µM | CC(=O)/C(=N\Nc1ccccc1C)N(C)c1cccc(Cl)c1
17 | > 10 µM | CC(=O)/C(=N\Nc1ccccc1[N+](=O)[O-])Oc1cccc(Cl)c1
18 | 2.72 µM | CC(=O)/C(=N\Nc1ccccc1)Nc1cccc(Cl)c1
19 | 0.526 µM | CC(=O)/C(=N\c1ccccc1)NNc1ccccc1C

Row | Ki | Compound
20 | 2.26 µM | CC(=O)/C(=N\c1ccccc1)NNc1ccccc1C(F)(F)F
21 | > 10 µM | CC(=O)C(=NNc1ccccc1C(F)(F)F)Nc1ccccc1Cl
22 | > 10 µM | CC(=O)/C(=N\Nc1ccccc1C#N)N(C)c1cccc(Cl)c1
23 | 0.062 µM | C#Cc1cccc(/N=C(/NNc2ccccc2C)C(C)=O)c1
24 | > 10 µM | CC(=O)/C(=N\c1ccc(Cl)cc1)NNc1ccccc1C(F)(F)F
25 | > 10 µM | CSc1cccc(N/C(=N/Nc2ccccc2C(F)(F)F)C(C)=O)c1
26 | > 10 µM | CC(=O)C(=NNc1ccccc1C(F)(F)F)Nc1cccc(C#N)c1
27 | 6.23 µM | CC(=O)C(=NNc1ccccc1)Nc1ccccc1
28 | > 10 µM | CC(=O)/C(=N\c1ccccc1Cl)NNc1ccccc1
29 | > 10 µM | COc1cccc(NC(=NNc2ccccc2)C(C)=O)c1
30 | 0.115 µM | CC(=O)/C(=N\c1cccc(C)c1)NNc1ccccc1Cl
31 | 0.051 µM | CC(=O)C(=NNc1ccccc1[N+](=O)[O-])Nc1cccc(Cl)c1
32 | > 10 µM | CC(=O)/C(=N\Nc1ccccc1C)Sc1cccc(Cl)c1
33 | > 10 µM | CC(=O)C(=NNc1ccccc1S(C)(=O)=O)Nc1cccc(Cl)c1
34 | > 10 µM | CSc1cccc(N/C(=N/Nc2ccccc2C)C(C)=O)c1
35 | > 10 µM | CCOc1cccc(N/C(=N/Nc2ccccc2C)C(C)=O)c1
36 | 0.526 µM | CC(=O)/C(=N\c1cccc(C)c1)NNc1ccccc1C
37 | 0.066 µM | C#Cc1cccc(NC(=NNc2ccccc2C(F)(F)F)C(C)=O)c1
38 | 0.415 µM | CC(=O)/C(=N\Nc1ccccc1C#N)Nc1cccc(Cl)c1

Row | Ki | Compound
39 | > 10 µM | CC(=O)/C(=N\Nc1ccccc1)N(C)c1cccc(Cl)c1
40 | > 10 µM | CC(=O)/C(=N\Nc1ccccc1Cl)Sc1cccc(Cl)c1
41 | > 10 µM | CSc1cccc(N/C(=N/Nc2ccccc2Cl)C(C)=O)c1
42 | > 10 µM | CC(=O)/C(=N\Nc1ccccc1C)Oc1cccc(Cl)c1
43 | 0.043 µM | CC(=O)/C(=N\c1cccc(F)c1)NNc1ccccc1C
44 | > 10 µM | CC(=O)/C(=N\Nc1ccccc1)Oc1cccc(Cl)c1
45 | > 10 µM | CCOc1cccc(NC(=NNc2ccccc2C(F)(F)F)C(C)=O)c1
46 | 6.95 µM | COc1cccc(N/C(=N/Nc2ccccc2C(F)(F)F)C(C)=O)c1
47 | > 10 µM | CC(=O)/C(=N\Nc1ccccc1C(F)(F)F)Oc1cccc(Cl)c1
48 | > 10 µM | CCOc1cccc(NC(=NNc2ccccc2Cl)C(C)=O)c1
49 | > 10 µM | CC(=O)/C(=N\c1ccccc1Cl)NNc1ccccc1C
50 | > 10 µM | CC(=O)/C(=N\c1ccccc1Cl)NNc1ccccc1Cl
51 | 0.299 µM | CC(=O)/C(=N\c1ccccc1)NNc1ccccc1Cl
52 | 0.652 µM | COc1cccc(N/C(=N/Nc2ccccc2Cl)C(C)=O)c1
53 | > 10 µM | CC(=O)/C(=N\c1cccc(C#N)c1)NNc1ccccc1C
54 | 1.46 µM | CC(=O)/C(=N\c1cccc(Cl)c1)NNc1ccc(Br)cc1
55 | 0.65 µM | CC(=O)/C(=N\Nc1ccccc1C#N)Oc1cccc(C)c1
56 | > 10 µM | CC(=O)/C(=N\c1ccc(Cl)cc1)NNc1ccccc1
